Laboratory results reported in PubChem BioAssay (NCI).
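Interpolation was linear, between the two tested concentrations surrounding the appropriate level; five concentrations were tested over 48 hours in 96-well plates. The concentration for 50% growth inhibition is given as GI50. TGI: total growth inhibition.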

Legend:
Assay in all cases: DTP human tumour cell line panel, 48 h
[1] = system: OVCAR-4 ovarian
[2] = system: NCI-H460 lung
[3] = system: A549 NSCLC
[4] = system: NCI-H23 lung
[5] = system: KM12 colon
[6] = system: UACC-257 melanoma
[7] = system: A498 renal
[8] = system: K-562 leukemia
[9] = system: HL-60(TB) leukemia
[10] = system: MDA-MB-435
[11] = system: ACHN renal
[12] = system: TK-10 renal
[13] = system: MOLT-4 leukemia
[14] = system: HS 578T breast
[15] = system: SR leukemia
[16] = system: BT-549 breast
[17] = system: HOP-92 NSCLC
[18] = system: 786-0 renal
[19] = system: HCT-15 colon
[20] = system: OVCAR-5 ovarian
[21] = system: HCC-2998 colon
[22] = system: T-47D breast
[23] = system: OVCAR-8 ovarian
[24] = system: CCRF-CEM leukemia
[25] = system: HCT-116 colon
[26] = system: SNB-19 CNS
[27] = system: SK-MEL-5 melanoma
[28] = system: UO-31 renal
[29] = system: MALME-3M melanoma
[30] = system: IGROV1 ovarian
[31] = system: RPMI-8226 leukemia
[32] = system: NCI-H522 lung
[33] = system: RXF 393 renal
[34] = system: U251 CNS
[35] = system: EKVX NSCLC
[36] = system: NCI-H226 lung
[37] = system: OVCAR-3 ovarian
[38] = system: CAKI-1 renal
[39] = system: DU-145 prostate
[40] = system: M14 melanoma
[41] = system: SF-539 CNS
[42] = system: UACC-62 melanoma
[43] = system: HOP-62 NSCLC
[44] = system: NCI/ADR-RES ovarian
[45] = system: SW-620 colon
[46] = system: COLO 205 colon
[47] = system: MDA-MB-231 breast
[48] = system: LOX IMVI melanoma
[49] = system: SNB-75 CNS
[50] = system: MCF7 breast
[51] = system: SF-268 CNS
[52] = system: SK-MEL-28 melanoma
[53] = system: HT29 colon
[54] = system: SF-295 CNS
[55] = system: PC-3 prostate
[56] = system: SN12C renal
[57] = system: SK-OV-3 ovarian
[58] = system: SK-MEL-2 melanoma

OCc1c(-c2cccs2)oc(-c2cccs2)c1CO
GI50 [1]: > 100 µM | TGI [1]: > 100 µM | GI50 [2]: 28.4 µM | TGI [2]: > 100 µM | GI50 [3]: 54.9 µM | TGI [3]: > 100 µM | GI50 [4]: 38.7 µM | TGI [4]: > 100 µM | GI50 [5]: 21.3 µM | TGI [5]: > 100 µM | GI50 [6]: 56.1 µM | TGI [6]: > 100 µM | GI50 [7]: 34.3 µM | TGI [7]: 91.7 µM | GI50 [8]: 41 µM | TGI [8]: > 100 µM | GI50 [9]: 21.1 µM | TGI [9]: 70 µM | GI50 [10]: 46.9 µM | TGI [10]: > 100 µM | GI50 [11]: 23.8 µM | TGI [11]: 72.1 µM | GI50 [12]: 10.2 µM | TGI [12]: 56.7 µM | GI50 [13]: 27.9 µM | TGI [13]: > 100 µM | GI50 [14]: 44.2 µM | TGI [14]: > 100 µM | GI50 [15]: 32.5 µM | TGI [15]: 60.5 µM | GI50 [16]: 56 µM | TGI [16]: > 100 µM | GI50 [17]: 42.8 µM | TGI [17]: > 100 µM | GI50 [18]: > 100 µM | TGI [18]: > 100 µM | GI50 [19]: 40.1 µM | TGI [19]: > 100 µM | GI50 [20]: 69.2 µM | TGI [20]: > 100 µM | GI50 [21]: 21.1 µM | TGI [21]: 45.6 µM | GI50 [22]: 17.3 µM | TGI [22]: > 100 µM | GI50 [23]: 50.7 µM | TGI [23]: > 100 µM | GI50 [24]: 48.7 µM | TGI [24]: > 100 µM | GI50 [25]: 44.1 µM | TGI [25]: > 100 µM | GI50 [26]: 67.5 µM | TGI [26]: > 100 µM | GI50 [27]: 39 µM | TGI [27]: > 100 µM | GI50 [28]: 50.5 µM | TGI [28]: > 100 µM | GI50 [29]: 30.1 µM | TGI [29]: 94.6 µM | GI50 [30]: 58.3 µM | TGI [30]: > 100 µM | GI50 [31]: 41.5 µM | TGI [31]: > 100 µM | GI50 [32]: 39.1 µM | TGI [32]: > 100 µM | GI50 [33]: 22.7 µM | TGI [33]: 78.5 µM | GI50 [34]: 71.9 µM | TGI [34]: > 100 µM | GI50 [35]: 34.6 µM | TGI [35]: > 100 µM | GI50 [36]: 50.3 µM | TGI [36]: > 100 µM | GI50 [37]: 48.1 µM | TGI [37]: > 100 µM | GI50 [38]: 38.2 µM | TGI [38]: 94.9 µM | GI50 [39]: 67.9 µM | TGI [39]: > 100 µM | GI50 [40]: 47.8 µM | TGI [40]: > 100 µM | GI50 [41]: 50.9 µM | TGI [41]: > 100 µM | GI50 [42]: 35.3 µM | TGI [42]: > 100 µM | GI50 [43]: > 100 µM | TGI [43]: > 100 µM | GI50 [44]: 40.1 µM | TGI [44]: > 100 µM | GI50 [45]: 63.6 µM | TGI [45]: > 100 µM | GI50 [46]: 35.9 µM | TGI [46]: > 100 µM | GI50 [47]: 47.3 µM | TGI [47]: 94 µM | GI50 [48]: 26.6 µM | TGI [48]: 52.7 µM | GI50 [49]: 69.4 µM | TGI [49]: > 100 µM | GI50 [50]: 1.62 µM | TGI [50]: > 100 µM | GI50 [51]: 35 µM | TGI [51]: > 100 µM | GI50 [52]: > 100 µM | TGI [52]: > 100 µM | GI50 [53]: 41 µM | TGI [53]: > 100 µM | GI50 [54]: 27.7 µM | TGI [54]: > 100 µM | GI50 [55]: 37.7 µM | TGI [55]: > 100 µM

CC(C)CC1c2[nH]c3ccccc3c2C[C@H]2C(=O)NC(Cc3c[nH]c4ccccc34)C(=O)N12 (stereo partly drawn)
TGI [1]: 63.8 µM | TGI [56]: 31.1 µM | TGI [3]: 71 µM | TGI [4]: 40 µM | TGI [5]: 28.8 µM | TGI [6]: 28.9 µM | TGI [7]: 33.4 µM | TGI [8]: 61.5 µM | TGI [9]: 40.9 µM | TGI [10]: 34.4 µM | TGI [11]: 60 µM | TGI [12]: 24.5 µM | TGI [13]: 39.1 µM | TGI [14]: 26.2 µM | TGI [15]: 45.5 µM | TGI [16]: 36.2 µM | TGI [17]: 34.5 µM | TGI [18]: 40.2 µM | TGI [19]: 47.2 µM | TGI [20]: 48 µM | TGI [22]: 42.5 µM | TGI [23]: 39 µM | TGI [25]: 25.7 µM | TGI [26]: 43.6 µM | TGI [27]: 26 µM | TGI [28]: 42.9 µM | TGI [29]: 28 µM | TGI [30]: 36 µM | TGI [57]: 49 µM | TGI [31]: 48.7 µM | TGI [32]: 29.5 µM | TGI [33]: 22.5 µM | TGI [34]: 28.4 µM | TGI [35]: 45.4 µM | TGI [36]: 50 µM | TGI [37]: 30.5 µM | TGI [38]: 66.1 µM | TGI [39]: > 100 µM | TGI [40]: 29 µM | TGI [42]: 36 µM | TGI [43]: 45.9 µM | TGI [44]: 56.4 µM | TGI [45]: 58.5 µM | TGI [46]: 34.8 µM | TGI [47]: 49.9 µM | TGI [48]: 31.1 µM | TGI [50]: > 100 µM | TGI [51]: 56.3 µM | TGI [52]: 40.5 µM | TGI [53]: 31.2 µM | TGI [58]: 32.9 µM | TGI [54]: 43.8 µM | TGI [55]: 41.9 µM
